Inhibition data for 27 molecules are collected here from US7402696B2, “Benzene compounds” (Ajinomoto Co., Inc., priority 2004, dated 2008).

Read-outs that look alike come from different tables or passages of the source.

The assay concerns the target T1, ACC (acetyl CoA carboxylase) purified from liver of male SD rat (Rattus norvegicus, UniProt P11497).
T1 construct: applied to a monomeric avidin sepharose column, and washed with buffer B. The ACC was eluted with buffer B containing 2 mM d-biotin; from tissue; host or cells: liver of male SD rat
Briefly: Measurement of ACC inhibition activity ([14C]-NaHCO3 incorporation). It is filed as biochemical. Particulars: ACC inhibition activity rate at 1 μM, read-out: ACC Inhibition (%). An outline of the steps:
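Enzyme was avidin-purified from livers of rats fasted and then sucrose-fed. Compounds were preincubated with ACC for 30 min at 37° C in Tris-HCl pH 7.5 with MgCl2, citrate and DTT. [14C]-NaHCO3 solution with 8 mM ATP and 0.5 mM acetyl CoA was added for 10 min at 37° C. Acid-stable 14C gave % inhibition at 1 μM.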

[1] abbreviates: Table 4-IV, Mode 4 benzenediamine compounds (numbers = x-IV).
Where [2] appears, read: Table 2-III, Mode 3 acetylene/oxadiazole/thiazole compounds (numbers = x-III).
Where [3] appears, read: Table 3-I, Mode 1 quinoline compounds (numbers = x-I).
The mark [4] stands for this setting: Table 4-A, further compounds of Modes 2 and 3.

Broadly, the inhibition is the share of the control response that was lost under treatment.

Turning to `CC(C)CCN(C)c1ccc(-c2noc(-c3cccc(C(=O)NS(=O)(=O)c4ccccc4)c3)n2)cc1N(CCCc1ccccc1)CCCc1ccccc1` [compound 56], the inhibition at 1 µM under setting [1] came out at 100%.
`CC(C)c1ccc(S(=O)(=O)NC(=O)c2ccc(-c3nc(-c4ccc(-c5csc(-c6ccc(C(F)(F)F)cc6)n5)cc4)no3)cc2)cc1` [compound 107]: under setting [2], the inhibition at 1 µM came out at 100%.
Turning to `CCCCCC(=O)NS(=O)(=O)c1ccccc1NC(=O)c1ccc(Nc2c(F)c(F)c(C(F)(F)F)c(F)c2F)c([N+](=O)[O-])c1` [compound 8], the inhibition at 1 µM under setting [1] came out at 50%.
`CC(C)CCN(C)c1ccc(-c2noc(-c3cccc(C(=O)NS(=O)(=O)c4ccccc4)c3)n2)cc1NC(=O)c1ccccc1` [compound 40]: under setting [1], the inhibition at 1 µM turned out to be 87%.
Consider `CCCCCC(=O)NS(=O)(=O)c1ccccc1NC(=O)c1ccc(Nc2ccccc2)c(NC(=O)c2ccccc2)c1` [compound 23], for which, under setting [1], the inhibition at 1 µM came to 74%.
Turning to `CSc1ccccc1CNc1cc(-c2noc(-c3cccc(C(=O)NS(=O)(=O)c4ccccc4)c3)n2)ccc1N(C)CCC(C)C` [compound 115], the inhibition at 1 µM under setting [1] came to 100%.
As for `CCCCS(=O)(=O)NC(=O)CC(C)(NC(=O)c1ccc2nc(-c3cc(C(F)(F)F)cc(C(F)(F)F)c3)ccc2c1)c1ccccc1` (stereo not drawn) [compound 56], the inhibition at 1 µM under setting [3] amounted to 47%.
With `O=C(O)c1ccccc1S(=O)(=O)Nc1ccc(C#Cc2cccc(C(F)(F)F)c2)cc1` [compound 9], the inhibition at 1 µM under setting [2] is 60%.
For the molecule `CC(C)c1ccc(S(=O)(=O)NC(=O)c2ccccc2-c2csc(-c3ccc4nc(-c5cc(C(F)(F)F)cc(C(F)(F)F)c5)ccc4c3)n2)cc1` [compound 115], under setting [3], the inhibition at 1 µM worked out at 97%.
For the molecule `Cc1ccccc1S(=O)(=O)NC(=O)c1cccc(-c2nc(-c3ccc(N(C)CCC(C)C)c(N4COc5ccccc5C4)c3)no2)c1` [compound 128], under setting [1], the inhibition at 1 µM was determined as 100%.
Regarding `O=C(O)c1cccc(-c2nc(-c3ccc(C#Cc4cccc(C(F)(F)F)c4)cc3)no2)c1` [compound 27], the inhibition at 1 µM under setting [2] worked out at 56%.
In the case of `CC(C)CCN(C)c1ccc(-c2noc(-c3cccc(C(=O)NS(=O)(=O)c4ccccc4)c3)n2)cc1NCc1ccccc1O` [compound 97], under setting [1], the inhibition at 1 µM was found to be 98%.
Turning to `Nc1ccccc1S(=O)(=O)NC(=O)c1cccc(-c2nc(-c3ccc(-c4csc(-c5ccccc5)n4)cc3)no2)c1` [Compound 137-III], the inhibition at 1 µM under setting [4] was found to be 96%.
In the case of `CCCCS(=O)(=O)NC(=O)c1ccccc1NC(=O)c1ccc2nc(-c3cc(C(F)(F)F)cc(C(F)(F)F)c3)ccc2c1` [compound 4], the inhibition at 1 µM under setting [3] amounted to 78%.
As for `Cc1ccccc1S(=O)(=O)NC(=O)c1cccc(-c2nc(-c3ccc(-c4csc(-c5ccccc5)n4)cc3)no2)c1` [Compound 141-III], the inhibition at 1 µM under setting [4] is 100%.
As for `O=C(O)c1ccc(-c2nc(-c3ccc(C#Cc4cccc(C(F)(F)F)c4)cc3)no2)cc1` [compound 28], the inhibition at 1 µM under setting [2] was found to be 58%.
Turning to `CCCCCC(=O)NS(=O)(=O)c1ccccc1NC(=O)c1ccc(Nc2ccc(C(F)(F)F)cc2)c(NC(=O)c2cccs2)c1` [compound 34], the inhibition at 1 µM under setting [1] amounted to 67%.
As to `O=C(O)c1ccc(C(=O)Nc2ccc(C#Cc3cccc(C(F)(F)F)c3)cc2)c(C(=O)O)c1` [compound 13], the inhibition at 1 µM under setting [2] came out at 51%.
For `CC(C)CCN(C)c1ccc(-c2noc(-c3cccc(C(=O)NS(=O)(=O)c4ccccc4)c3)n2)cc1NCc1cc(O)cc(O)c1` [compound 114], the inhibition at 1 µM under setting [1] was 77%.
On to `CCCCCC(=O)NS(=O)(=O)c1ccccc1NC(=O)c1ccc2nc(-c3cc(C(F)(F)F)cc(C(F)(F)F)c3)ccc2c1` [compound 7], for which, under setting [3], the inhibition at 1 µM turned out to be 72%.
For the molecule `CC(C)CCN(C)c1ccc(-c2noc(-c3cccc(C(=O)NS(=O)(=O)c4ccccc4)c3)n2)cc1NCc1cccc(C(=O)O)c1` [compound 100], the inhibition at 1 µM under setting [1] came to 72%.
Same read-out and setting: in the case of `CC(C)CCN(C)c1ccc(C(=O)NC(CC(=O)NS(=O)(=O)c2ccccc2)C2CCCCC2)cc1N(C)Cc1ccccc1` (stereo not drawn) [compound 93] it was 84%; in that of `CCCCCC(=O)NS(=O)(=O)c1ccccc1NC(=O)c1ccc(Nc2ccccc2)c(NC(=O)c2ccc(C(F)(F)F)cc2)c1` [compound 25], 97%.
Turning to `CC(C)CCN(C)c1ccc(C(=O)NC(CC(=O)NS(=O)(=O)c2cn(C)cn2)C2CCCCC2)cc1NCc1ccccc1` (stereo not drawn) [Compound 147-IV], the inhibition at 1 µM under setting [1] is 68%.
Consider `CC(C)CCN(C)c1ccc(-c2noc(-c3cccc(C(=O)NS(=O)(=O)c4ccccc4)c3)n2)cc1NC(=O)C1CCCCC1` [compound 41], for which the inhibition at 1 µM under setting [1] stood at 85%.
As to `CC(C)CCN(C)c1ccc(-c2noc(-c3cccc(C(=O)NS(=O)(=O)c4ccccc4)c3)n2)cc1NCc1cccc(O)c1` [compound 96], the inhibition at 1 µM under setting [1] came to 95%.
The same measure, in the same setting: for `CC(C)CCNc1ccc(-c2noc(-c3cccc(C(=O)NS(=O)(=O)c4ccccc4)c3)n2)cc1[N+](=O)[O-]` [compound 36] the value was 87%.
